This is an account of results in patent US10065941B2, “Aminotriazine derivative and pharmaceutical composition comprising the same” (Shionogi & Co., Ltd., priority 2013, dated 2018).

In general, IC50 refers to the concentration at which inhibition is half-maximal. High values mean weaker potency in that assay, low ones greater potency in that assay.

The target of the assay is human P2X3 receptor (Homo sapiens (Human), UniProt P56373). The assay can be described thus: Evaluation of human P2X3 receptor inhibitory activity (Test Example 1). It counts as cell-based. The note with it: C6BU-1 cell transfected with human P2X3 receptor gene, FLIPR 384. An outline of the steps:
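FLIPR calcium read-out: signal taken as peak fluorescence after ATP addition divided by starting fluorescence, and IC50 calculated from it. Compound added 5 min before 150 nM ATP solution (pre-dispense stock) to Fluo-3-AM-loaded C6BU-1 cells stably transfected with human P2X3; HEPES buffer pH 7.5 with probenecid.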

Sequence of human P2X3 receptor (P56373 whole entry): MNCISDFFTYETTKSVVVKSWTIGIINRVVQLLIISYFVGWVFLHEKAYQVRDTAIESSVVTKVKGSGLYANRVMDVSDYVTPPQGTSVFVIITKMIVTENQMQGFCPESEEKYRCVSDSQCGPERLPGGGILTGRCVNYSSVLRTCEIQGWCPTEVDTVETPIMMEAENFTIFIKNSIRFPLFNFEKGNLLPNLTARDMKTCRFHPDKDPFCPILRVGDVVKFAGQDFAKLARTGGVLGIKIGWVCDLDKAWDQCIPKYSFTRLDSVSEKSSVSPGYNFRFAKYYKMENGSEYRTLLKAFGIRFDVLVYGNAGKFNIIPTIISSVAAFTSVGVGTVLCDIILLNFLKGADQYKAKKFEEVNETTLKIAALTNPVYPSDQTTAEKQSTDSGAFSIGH

Consider `O=C(O)C1(Cn2c(=O)[nH]/c(=N\c3ccc(Oc4cccc(F)n4)cc3)n(Cc3ccc(Cl)cc3)c2=O)COC1` [Compound I-049], for which half-maximal inhibition (IC50) required 15 nM. Next, `C[C@@H](C(=O)O)[C@H](C)n1c(=O)[nH]/c(=N\c2ccc(Oc3cncc(F)c3)c(F)c2)n(Cc2ccc(Cl)cc2)c1=O` [Compound R-189]: 8 nM; `COC(=O)[C@H](C)[C@H](C)n1c(=O)[nH]/c(=N\c2ccc(Oc3cnc(Cl)cn3)cc2)n(Cc2ccc(Cl)cc2)c1=O` [Compound R-159]: 18 nM; `COC(=O)C(C)(C)Cn1c(=O)[nH]/c(=N\c2ccc(Oc3cncc(C)c3)cc2)n(Cc2ccc(Cl)cc2)c1=O` [Compound R-193]: 11 nM. In the case of `C[C@@H](Cn1c(=O)[nH]/c(=N\c2ccc(Oc3ccccn3)cc2)n(Cc2ccc(C(F)F)cc2)c1=O)C(=O)O` [Compound I-201] it was 13 nM. Next, `COc1cncc(Oc2ccc(/N=c3\[nH]c(=O)n(CC(C)(C)C(=O)O)c(=O)n3Cc3ccc(Cl)cc3)cc2)c1` [Compound R-202]: 12 nM. As for `Cc1ccc(Cn2c(=O)n([C@H]3C[C@@H](C(=O)O)C3)c(=O)[nH]/c2=N\c2ccc(Oc3ccc(Cl)cn3)cc2)cc1` [Compound I-179], the IC50 stood at 6 nM.

The molecule `COC(=O)C(C)(C)Cn1c(=O)[nH]/c(=N\c2ccc(Oc3cnccn3)c(F)c2)n(Cc2ccc(Cl)cc2)c1=O` [Compound R-049] showed an IC50 of 8 nM.

The molecule `COC(=O)C(C)(C)Cn1c(=O)[nH]/c(=N\c2ccc(Oc3ccnc(Cl)c3)cc2)n(Cc2ccc(Cl)cc2)c1=O` [Compound R-087] registered an IC50 of 12 nM. In the case of `Cc1nccnc1Oc1ccc(/N=c2\[nH]c(=O)n(C[C@H](C)C(=O)O)c(=O)n2Cc2ccc(Cl)cc2)cc1` [Compound R-237] it was 9 nM; in that of `C[C@@H](Cn1c(=O)[nH]/c(=N\c2ccc(Oc3cnccn3)c(F)c2)n(Cc2ccc(Cl)cc2)c1=O)C(=O)O` [Compound R-055], 7 nM; in that of `COC(=O)[C@H](Cn1c(=O)[nH]/c(=N\c2ccc(Oc3ccccn3)cc2)n(Cc2ccc(Cl)cc2)c1=O)OC` [Compound I-143], 5 nM.

`O=c1[nH]/c(=N\c2ccc(Oc3ccccn3)cc2)n(Cc2ccc(Cl)cc2)c(=O)n1C[C@H](O)CO` [Compound R-235] returned an IC50 of 10 nM.

Consider `C[C@@H](Cn1c(=O)[nH]/c(=N\c2ccc(Oc3ncccc3C#N)cc2)n(Cc2ccc(Cl)cc2)c1=O)C(=O)O` [Compound I-047], for which half-maximal inhibition (IC50) required 22 nM.

Consider `Cc1cc(/N=c2\[nH]c(=O)n(CC(C)(C)C(=O)O)c(=O)n2Cc2ccc(Cl)cc2)ccc1Oc1ccccn1` [Compound I-219], for which half-maximal inhibition (IC50) was put at 12 nM. In the case of `COC(=O)C(C)(C)Cn1c(=O)[nH]/c(=N\c2ccc(Oc3ccc(C)cn3)cc2)n(Cc2ccc(Cl)cc2)c1=O` [Compound I-055] it was 9 nM; in that of `COC(=O)CCn1c(=O)[nH]/c(=N\c2ccc(Oc3ccccn3)c(C)c2)n(Cc2ccc(Cl)cc2)c1=O` [Compound R-291], 6 nM. In the case of `COC(=O)C(C)(C)Cn1c(=O)[nH]/c(=N\c2ccc(N3CCOCC3)c(C)c2)n(Cc2ccc(Cl)cc2)c1=O` [Compound R-102] it was 100 nM; in that of `CC(C)(Cn1c(=O)[nH]/c(=N\c2ccc(Oc3cnccn3)cc2)n(Cc2ccc(Cl)cc2)c1=O)C(=O)O` [Compound R-020], 13 nM. Next, `COC(=O)[C@@H](C)Cn1c(=O)[nH]/c(=N\c2ccc(Oc3ccc(C(C)=O)cn3)cc2)n(Cc2ccc(C)cc2)c1=O` [Compound I-267]: 3 nM; `Cc1ccc(Cn2c(=O)n(C[C@H](C)C(=O)O)c(=O)[nH]/c2=N\c2ccc(Oc3ccccn3)c(F)c2)cc1` [Compound I-210]: 7 nM.

`Cc1ccc(Cn2c(=O)n(C[C@H](C)C(=O)O)c(=O)[nH]/c2=N\c2ccc(Oc3cccc(C(F)(F)F)n3)cc2)cc1` [Compound I-039] gave an IC50 of 8 nM. In the case of `CC(C)(Cn1c(=O)[nH]/c(=N\c2ccc(Oc3ncccc3C(F)(F)F)cc2)n(Cc2ccc(Cl)cc2)c1=O)C(=O)O` [Compound I-033] it was 23 nM; in that of `COC(=O)[C@@H](C)Cn1c(=O)[nH]/c(=N\c2ccc(Oc3ncccc3OC(F)F)cc2)n(Cc2ccc(Cl)cc2)c1=O` [Compound I-043], 117 nM. Next, `COC(=O)[C@@H](C)Cn1c(=O)[nH]/c(=N\c2ccc(Oc3ncns3)cc2)n(Cc2ccc(Cl)cc2)c1=O` [Compound R-134]: 5 nM; `COC(=O)[C@@H](C)Cn1c(=O)[nH]/c(=N\c2ccc(Oc3cccc(CI)n3)cc2)n(Cc2ccc(C)cc2)c1=O` [Compound I-265]: 10 nM. In turn, `Cc1ccc(Cn2c(=O)n(C[C@H](C)C(=O)O)c(=O)[nH]/c2=N\c2ccc(Oc3ccnc(F)c3)cc2)cc1` [Compound R-223] came in with an IC50 of 7 nM. In the case of `C[C@@H](Cn1c(=O)[nH]/c(=N\c2ccc(Oc3ccc(CF)nc3)cc2)n(Cc2ccc(Cl)cc2)c1=O)C(=O)O` [Compound I-233] it was 6 nM; in that of `COC(=O)[C@@H](C)Cn1c(=O)[nH]/c(=N\c2ccc(Oc3ncccc3C#N)cc2)n(Cc2ccc(Cl)cc2)c1=O` [Compound I-045], 19 nM. In the case of `CC(C)(Cn1c(=O)[nH]/c(=N\c2ccc(Oc3cnc(C(F)(F)F)cn3)cc2)n(Cc2ccc(Cl)cc2)c1=O)C(=O)O` [Compound R-176] it was 7 nM; in that of `CC(C)(Cn1c(=O)[nH]/c(=N\c2ccc(Oc3cccc(F)n3)cc2)n(Cc2ccc(Cl)cc2)c1=O)C(=O)O` [Compound I-010], 5 nM. Next, `C[C@H](CC(=O)O)n1c(=O)[nH]/c(=N\c2ccc(Oc3ncccc3F)cc2)n(Cc2ccc(Cl)cc2)c1=O` [Compound I-166]: 13 nM.

In turn, `CCOC(=O)[C@H]1C[C@@H](n2c(=O)[nH]/c(=N\c3ccc(Oc4ccccn4)cc3)n(Cc3ccc(Cl)cc3)c2=O)C1` [Compound I-171] gave an IC50 of 9 nM. Regarding `C[C@@H](Cn1c(=O)[nH]/c(=N\c2ccc(Oc3nc4ccccc4s3)cc2)n(Cc2ccc(Cl)cc2)c1=O)C(=O)O` [Compound R-192], it took 4 nM to reach half-maximal inhibition (IC50). Next, `CCOC(=O)C[C@H](O)Cn1c(=O)[nH]/c(=N\c2ccc(OC(C)C)c(Cl)c2)n(Cc2ccc(Cl)cc2)c1=O` [Compound R-171]: 33 nM; `Cc1cc(/N=c2\[nH]c(=O)n(C[C@H](C)C(=O)O)c(=O)n2Cc2ccc(Cl)cc2)ccc1Oc1cncc(F)c1` [Compound R-116]: 5 nM; `C[C@@H](Cn1c(=O)[nH]/c(=N\c2ccc(Oc3cnccn3)cc2)n(Cc2ccc(Cl)cc2)c1=O)C(=O)O` [Compound R-019]: 6 nM. In the case of `Cc1ccc(Oc2ccc(/N=c3\[nH]c(=O)n([C@@H](C)[C@@H](C)C(=O)O)c(=O)n3Cc3ccc(Cl)cc3)cc2)nc1` [Compound I-074], the IC50 came out at 5 nM. Next, `Cc1cccnc1Oc1ccc(/N=c2\[nH]c(=O)n(C[C@H](C)C(=O)O)c(=O)n2Cc2ccc(Cl)cc2)cc1` [Compound I-077]: 10 nM. Next, `C[C@@H](Cn1c(=O)[nH]/c(=N\c2ccc(Oc3ccc(F)cn3)cc2)n(CC2CCC3(CC2)CC3)c1=O)C(=O)O` [Compound I-235]: 9 nM.

Regarding `Cc1ccc(Cn2c(=O)n(C[C@H](C)C(=O)O)c(=O)[nH]/c2=N\c2ccc(Oc3cccc(Cl)n3)cc2)cc1` [Compound I-119], 6 nM corresponded to half-maximal inhibition (IC50).

The molecule `NC(=O)CCn1c(=O)[nH]/c(=N\c2ccc(Oc3ccccn3)cc2)n(Cc2ccc(Cl)cc2)c1=O` [Compound R-229] came in with an IC50 of 7 nM.

Turning to `COC(=O)[C@@H](C)Cn1c(=O)[nH]/c(=N\c2ccc(Oc3ccccn3)cc2)n(CC2CC3(CCC3)C2)c1=O` [Compound I-268], the IC50 was 3 nM. Next, `COC(=O)[C@H](C)[C@H](C)n1c(=O)[nH]/c(=N\c2ccc(Oc3cc(C)ccn3)cc2)n(Cc2ccc(Cl)cc2)c1=O` [Compound I-107]: 31 nM. In the case of `COC(=O)C(C)(C)Cn1c(=O)[nH]/c(=N\c2ccc(N3CCCCC3)c(F)c2)n(Cc2ccc(Cl)cc2)c1=O` [Compound R-141] it was 47 nM; in that of `COCc1ccc(Oc2ccc(/N=c3\[nH]c(=O)n(C[C@H](C)C(=O)O)c(=O)n3Cc3ccc(C)cc3)cc2)nc1` [Compound I-254], 6 nM.

For the molecule `O=c1[nH]/c(=N\c2ccc(Oc3ccccn3)cc2)n(Cc2ccc(Cl)cc2)c(=O)n1CC(O)(CO)CO` [Compound R-255, 1-(4-chlorobenzyl)-3-(2-hydroxymethyl-2,3-dihydroxypropyl)-6-[4-(2-pyridyloxy)phenylimino]-1,3,5-triazinane-2,4-dione], the IC50 was found to be 5 nM. In the case of `Cc1ccnc(Oc2ccc(/N=c3\[nH]c(=O)n([C@@H](C)[C@@H](C)C(=O)O)c(=O)n3Cc3ccc(Cl)cc3)cc2)c1` [Compound I-111] it was 9 nM. Next, `C[C@@H](Cn1c(=O)[nH]/c(=N\c2ccc(N3CCCCC3)c(F)c2)n(Cc2ccc(Cl)cc2)c1=O)C(=O)O` [Compound R-146]: 33 nM. Next, `Cc1cc(/N=c2\[nH]c(=O)n(C[C@H](C)C(=O)O)c(=O)n2Cc2ccc(Cl)cc2)ccc1O[C@H](C)C(F)(F)F` [Compound R-098]: 80 nM; `COC(=O)[C@@H](C)Cn1c(=O)[nH]/c(=N\c2ccc(Oc3cc(C(F)(F)F)ccn3)cc2)n(Cc2ccc(Cl)cc2)c1=O` [Compound I-082]: 112 nM; `CC(C)(Cn1c(=O)[nH]/c(=N\c2ccc(Oc3cc(C(F)(F)F)ccn3)cc2)n(Cc2ccc(Cl)cc2)c1=O)C(=O)O` [Compound I-092]: 68 nM. Molecule `Cc1nsc(Oc2ccc(/N=c3\[nH]c(=O)n(C[C@H](C)C(=O)O)c(=O)n3Cc3ccc(Cl)cc3)cc2)n1` [Compound R-160] gave an IC50 of 8 nM.

In turn, `COC(=O)c1ccc(NC(=O)c2cccc(Oc3ccc(/N=c4\[nH]c(=O)n(C)c(=O)n4C[C@H]4CC[C@H](C)CC4)cc3)n2)cc1` [Compound R-004] showed an IC50 of 123 nM.

Regarding `C[C@@H](C(=O)O)[C@H](C)n1c(=O)[nH]/c(=N\c2ccc(Oc3cc(Cl)ccn3)cc2)n(Cc2ccc(Cl)cc2)c1=O` [Compound I-091], 10 nM corresponded to half-maximal inhibition (IC50).
